Assay results reported in patent US20260263468A1 (Fundación Instituto de Investigación Sanitaria Fundación …, priority 2023, published 2026).

Key:
[1] = test system: K/B×N serum transfer-induced arthritis; test: Tissues weight at collection, acute model of inflammation; type: in vivo, C57BL/6J mice
Procedure: Data collected for absolute weight are correlated with mouse weight to obtain relative weight (*indicates differences with the sham group and $ indicates differences with the arthritic group). WAT, white adipose tissue; BAT, brown adipose tissue. Values are presented as mean±SEM. […]
(§1) Mice were weighted weekly. Development of arthritis was assessed daily, and the severity of arthritis was assessed in each paw on a 4-point scale defined as follows: 0=normal appearance, 1=localized edema/erythema over one surface of the paw, 2=edema/erythema involving more than one surface of the paw, and 3-4=marked edema/erythema involving the whole paw. Scores of all 4 paws were added for a composite score. All motor activity tests were performed prior to serum inoculation and at the highest point of inflammation. Mice were euthanized on day 16 for acute inflammation model or 30 days for Inflammation resolved model. A representative photo of body structure and muscle of pawn were taken on this day. Gastronemius was collected for protein and RNA extraction. Tibialis and soleus were included for freeze histology following the indications of H. Meng (see references in ref. 44). Bones were prepared for micro-computed tomography (microCT) and histology. Blood was drawn and serum was isolated for measurement of inflammatory cytokines and C-reactive protein (CPR).

[2] = test system: K/B×N serum transfer-induced arthritis; test: Resolved inflammation model (30 days): tissues weight, inflammation, body weight; type: in vivo, C57BL/6J mice; settings: for BAT, Absolute weight / Bodyweight, Absolute weight / EDL, Absolute weight / Gastronemius, Absolute weight / Tibialis, Absolute weight / WAT, Absolute weight: resolved model
Procedure: Animals were sacrificed 30 days after serum transfer.
as §1
Body weight and muscle loss continue happening until day 30 when inflammation is resolved (FIG. 15), and dipy treatment continues reverting inflammation effects (FIG. 15A).

[3] = test system: K/B×N serum transfer-induced arthritis; test: Atrogenes mRNA expression (RT-PCR) in gastrocnemius; type: in vivo, C57BL/6J mice; settings: RA+Dipy
Procedure: Total RNA was isolated from crushed frozen gastrocnemius using TRIzol reagent (Roche Diagnostics, Barcelona, Spain) following manufacturer's instructions. A total of 1 μg RNA was reverse transcribed with a High Capacity cDNA Reverse Transcription Kit (Applied Biosystems, San Francisco, CA, USA) at […], including the following reagents, in the same reaction: RNase Inhibitor 1 U/μL, Random Hexamers […], MgCl2 5 mM, PCR buffer II 1× and dNTPs 1 mM. Relative quantification of gene expression was performed via real-time RT-PCR on a Step One Plus (Applied Biosystems) with Power UP SYBR Green MasterMix according to the manufacturer's protocol. The primers were provided from Sigma-Aldrich according to the primer bank at https://pga.mgh.harvard.edu/primerbank/. Gene expression levels were calculated with the ΔΔCt method.

C2C12 [4] = settings: dipyridamole 1 μM ± PSB-603 1 μM
Procedure: (§2) Cells were lysed with RIPA buffer and protein concentration was determined by BCA. […] Variations in intensity were expressed as % of basal (day 0) and expressed as mean±SEM. All results were calculated as a percentage of non-differentiated controls to minimize the intrinsic variation among different experiments.

[5] = test system: K/B×N serum transfer-induced arthritis; test: Western blot of gastronemius, acute model
C2C12 myoblast cell line = test: Western blot of C2C12 under pro-inflammatory conditions with/without dipyridamole
Procedure: Western blot was performed as described above.
Protein concentration was determined by BCA. 4 μg for cells and 40-50 μg for tissue samples of protein was subjected to 6-15% SDS-PAGE and transferred to a nitrocellulose membrane. Membranes were blocked with 3% BSA in Tris-buffered saline containing 0.1% Tween-20 (TBS-T). After that, the membranes were incubated overnight at 4° C. with the primary antibodies for A2A, A2B, MHC (Thermo Fisher Scientific, Waltham, USA), AMPK, pAMPK (Thr172), p21, p16 (Cell signaling, Danvers, EEUU) (1:1000 each) and Pax-7 (Developmental Studies Hybridoma Bank, Houston, EEUU) (1:500 each).

C2C12 [6] = test: Western blot of myogenesis markers during differentiation; type: cell-based; settings: 1 μM
Procedure: as §2

[7] = RA mice, dipy started 7 days after serum transfer
[8] = healthy mice, dipyridamole alone, Sham 100±1%

Q: How did the “BAT, Absolute weight” value ([1]; RA + Dipy) turn out when `OCCN(CCO)c1nc(N2CCCCC2)c2nc(N(CCO)CCO)nc(N3CCCCC3)c2n1` [dipyridamole, 2,6-bis(Diethanolamino)-4,8-dipiperidinopyrimido[5,4-d]pyrimidine] was run?
A: The value was 0.157 ± 0.005 g.

Q: And the “EDL, Absolute weight” value ([1]; RA + Dipy)?
A: The value was 0.010 ± 0.013 g.

Q: What about the “Gastronemius, Absolute weight” value ([1]; RA + Dipy) of the same compound?
A: Its value is 0.123 ± 0.004 g.

Q: What about the “Quadriceps, Absolute weight” value ([1]; RA + Dipy) of the same compound?
A: Its value is 0.15 ± 0.01 g.

Q: And the “Soleus, Absolute weight” value ([1]; RA + Dipy)?
A: Its value is 0.008 ± 0.001 g.

Q: And the “Tibialis, Absolute weight” value ([1]; RA + Dipy)?
A: Its value is 0.056 ± 0.004 g.

Q: What about the “WAT, Absolute weight” value ([1]; RA + Dipy) of the same compound?
A: Its value is 0.198 ± 0.018 g.

Q: And the “Bodyweight, Absolute weight” value ([1]; RA mice + Dipy 25 mg/kg/day)?
A: Its value is 22.12 ± 0.18 g.

Q: What about the “BAT, Absolute weight” value ([1]; healthy mice, Dipy alone) of the same compound?
A: Its value is 0.16 ± 0.003 g.

Q: What about the “EDL, Absolute weight” value ([1]; healthy mice, Dipy alone) of the same compound?
A: Its value is 0.011 ± 0.008 g.

Q: What about the “Gastronemius, Absolute weight” value ([1]; healthy mice, Dipy alone) of the same compound?
A: Its value is 0.174 ± 0.007 g.

Q: And the “Soleus, Absolute weight” value ([1]; healthy mice, Dipy alone)?
A: The value was 0.011 ± 0.002 g.

Q: What about the “Tibialis, Absolute weight” value ([1]; healthy mice, Dipy alone) of the same compound?
A: The value was 0.08 ± 0.009 g.

Q: And the “WAT, Absolute weight” value ([1]; healthy mice, Dipy alone)?
A: Its value is 0.22 ± 0.02 g.

Q: What about the “Bodyweight, Absolute weight” value ([1]; healthy mice, Dipy alone 25 mg/kg/day) of the same compound?
A: Its value is 24.26 ± 1.72 g.

Q: What about the Body weight [2, 7] of the same compound?
A: The Body weight was “body weight gain starting one week after first dipy dose”.

Q: And the Joint inflammation [2, 7]?
A: The Joint inflammation was “complete reversion of inflammation”.

Q: What about the “BAT, Absolute weight” value ([2]; Dipy alone) of the same compound?
A: Its value is 0.15 ± 0.01 g.

Q: What about the “Bodyweight, Absolute weight” value ([2]; Dipy alone) of the same compound?
A: Its value is 27 ± 0.5 g.

Q: What about the “EDL, Absolute weight” value ([2]; Dipy alone) of the same compound?
A: Its value is 0.03 ± 0.01 g.

Q: And the “Gastronemius, Absolute weight” value ([2]; Dipy alone)?
A: Its value is 0.39 ± 0.03 g.

Q: What about the “Tibialis, Absolute weight” value ([2]; Dipy alone) of the same compound?
A: Its value is 0.16 ± 0.02 g.

Q: And the “WAT, Absolute weight” value ([2]; Dipy alone)?
A: Its value is 0.14 ± 0.06 g.

Q: And the “BAT, Absolute weight” value ([2]; RA + Dipy D 0)?
A: Its value is 0.17 ± 0.01 g.

Q: What about the “EDL, Absolute weight” value ([2]; RA + Dipy D 0) of the same compound?
A: The value was 0.03 ± 0.01 g.

Q: And the “Gastronemius, Absolute weight” value ([2]; RA + Dipy D 0)?
A: The value was 0.37 ± 0.02 g.

Q: And the “Tibialis, Absolute weight” value ([2]; RA + Dipy D 0)?
A: The value was 0.11 ± 0.01 g.

Q: What about the “WAT, Absolute weight” value ([2]; RA + Dipy D 0) of the same compound?
A: Its value is 0.15 ± 0.08 g.

Q: And the “Bodyweight, Absolute weight” value ([2]; RA + Dipy D 0 (preventive))?
A: Its value is 26.4 ± 1.31 g.

Q: What about the “BAT, Absolute weight” value ([2]; RA + Dipy D 7) of the same compound?
A: The value was 0.15 ± 0.01 g.

Q: What about the “Gastronemius, Absolute weight” value ([2]; RA + Dipy D 7) of the same compound?
A: The value was 0.33 ± 0.02 g.

Q: And the “Tibialis, Absolute weight” value ([2]; RA + Dipy D 7)?
A: Its value is 0.05 ± 0.01 g.

Q: And the “WAT, Absolute weight” value ([2]; RA + Dipy D 7)?
A: The value was 0.18 ± 0.12 g.

Q: And the “Bodyweight, Absolute weight” value ([2]; RA + Dipy D 7 (therapeutic))?
A: Its value is 27.26 ± 1.20 g.

Q: And the “Atrogin-1 mRNA expression” value ([3]; RA 5.40±1.37, Sham 1.94±0.33)?
A: Its value is 0.29±0.09.

Q: And the “Murf1 mRNA expression” value ([3]; RA 8.71±2.75, Sham 1.60±0.35)?
A: Its value is 1.60±0.22.

Q: What about the PAX7 protein expression (C2C12 [4]; 2% HS, day 1) of the same compound?
A: The PAX7 protein expression was 198±24%.

Q: And the MHC protein expression (C2C12 [4]; day 1)?
A: The MHC protein expression was 95±13%.

Q: And the Myf5 protein expression (C2C12 [4]; day 3)?
A: The Myf5 protein expression was 79.48±31%.

Q: What about the PKAα protein expression (C2C12 [4]; day 4) of the same compound?
A: The PKAα protein expression was 358±156%.

Q: And the pAMPK expression (C2C12 [4]; day 4)?
A: The pAMPK expression was 284±79.8%.

Q: What about the pCREB (C2C12 [4]; day 4) of the same compound?
A: The pCREB was 399.6±119.8%.

Q: And the CK protein expression ([5]; RA+Dipy, RA 77.98±10.81%, Sham 100±0%)?
A: Its CK protein expression is 393.4±55.09%.

Q: And the “A2B receptor expression in gastronemius” value ([5]; arthritic mice + dipyridamole, arthritic 35±9%, Sham 100±1%)?
A: The value was 160±14%.

Q: And the “AMPK phosphorylation in gastronemius” value ([5]; arthritic mice + dipyridamole, arthritic 53±7%, sham 100±1%)?
A: Its value is 152±5%.

Q: What about the “MHC protein expression in gastronemius” value ([5]; arthritic mice + dipyridamole, arthritic 60±7%, sham 100±1%) of the same compound?
A: The value was 184±6%.

Q: And the “A2A receptor expression in gastronemius” value ([5]; arthritic mice + dipyridamole, arthritic 71±3%, Sham 100±1%)?
A: Its value is 123±6%.

Q: And the “Pax7 protein expression in gastronemius” value ([5]; arthritic mice + dipyridamole, arthritic 151±13%, sham 100±1%)?
A: The value was 274±11%.

Q: What about the p21 protein expression ([5]; arthritic mice + dipyridamole, arthritic 221±38%) of the same compound?
A: The p21 protein expression was 64±15%.

Q: What about the p16 protein expression ([5]; arthritic mice + dipyridamole, arthritic 392±25%) of the same compound?
A: The p16 protein expression was 139±32%.

Q: And the “Pax7 and MHC protein expression in gastronemius” value ([5]; healthy mice, dipy alone vs sham)?
A: Its value is “non-significant increase”.

Q: And the “A2A receptor expression in gastronemius” value [5, 8]?
A: The value was 118.8±11.30%.

Q: And the “A2B receptor expression in gastronemius” value [5, 8]?
A: Its value is 167.6±10.63%.

Q: What about the “pAMPK expression in gastronemius” value [5, 8] of the same compound?
A: Its value is 194.2±5.2%.

Q: What about the “CREB expression (vs 100% basal)” value (C2C12 myoblast cell line; 24 h of differentiation) of the same compound?
A: Its value is 361.5±68.8%.

Q: And the AMPK activation (C2C12 myoblast cell line; cytokine/LPS ± dipyridamole 1 μM, day 4, control 222.7±23.9%)?
A: Its AMPK activation is “did not increase AMPK levels”.

Q: What about the PKAα expression (C2C12 myoblast cell line; day 4, dipyridamole combined with IL-6, IL-6 alone 107±5.8%) of the same compound?
A: Its PKAα expression is 245.3±34.3%.

Q: What about the PKAα expression (C2C12 myoblast cell line; day 4, dipyridamole combined with INFγ, INFγ alone 101.7±3.7%) of the same compound?
A: Its PKAα expression is 245.3±34.3%.

Q: And the PKAα expression (C2C12 myoblast cell line; day 4, control 213.9±21.6%)?
A: Its PKAα expression is 245.3±34.3%.

Q: What about the “Myogenesis (PAX7, MHC)” value (C2C12 myoblast cell line; dipyridamole 1 μM alone) of the same compound?
A: Its value is “did not modulate myogenesis”.

Q: And the “PAX7 protein expression (% of basal)” value (C2C12 [6]; day 1, control 315±58%)?
A: Its value is “revert the effect to control levels”.

Q: What about the “MyoD protein expression (% of basal)” value (C2C12 [6]; day 2, control 182±8%) of the same compound?
A: The value was 162±29%.

Q: And the “Myf5 protein expression (% of basal)” value (C2C12 [6]; first 2 days of differentiation)?
A: The value was “did not modulate”.
